Numbers after ± are expanded uncertainties.
Tests used:
[1] = 101.33 kPa, Liquid; for mass density: Vibrating tube method; for viscosity: Concentric cylinders viscometry
[2] = refractive index (Na D-line) (dimensionless); details: 101.33 kPa, Liquid, Standard Abbe refractometry

Row | SMILES | mass density ([1]; 308.15 K) | viscosity ([1]; 313.15 K) | mass density ([1]; 313.15 K) | viscosity ([1]; 318.15 K) | mass density ([1]; 318.15 K) | viscosity ([1]; 323.15 K) | mass density ([1]; 323.15 K) | viscosity ([1]; 328.15 K) | mass density ([1]; 328.15 K) | viscosity ([1]; 333.15 K) | mass density ([1]; 333.15 K) | viscosity ([1]; 338.15 K) | mass density ([1]; 338.15 K) | viscosity ([1]; 343.15 K) | mass density ([1]; 343.15 K) | viscosity ([1]; 348.15 K) | mass density ([1]; 348.15 K) | viscosity ([1]; 353.15 K) | mass density ([1]; 353.15 K) | refractive index ([2]; 308.15 K) | also measured
1 | CCCCCCCCn1cc[n+](CCC#N)c1.[Br-] [3-(2-cyanoethyl)-1-octyl-1H-imidazolium bromide] | 1169.8 ± 1.1 kg/m3 | 13044 ± 980 mPa·s | 1166.4 ± 1.1 kg/m3 | 8302.7 ± 570 mPa·s | 1163 ± 1.1 kg/m3 | 5136.1 ± 320 mPa·s | 1159.6 ± 1.1 kg/m3 | 3291.8 ± 190 mPa·s | 1156.2 ± 1.1 kg/m3 | 2160.4 ± 110 mPa·s | 1152.9 ± 1.1 kg/m3 | 1459.8 ± 67 mPa·s | 1149.5 ± 1.1 kg/m3 | 1019.6 ± 42 mPa·s | 1146.1 ± 1.1 kg/m3 | 727.9 ± 26 mPa·s | 1142.8 ± 1.1 kg/m3 | 530.5 ± 17 mPa·s | 1139.6 ± 1 kg/m3 | 1.51266 ± 0.00037 | mass density ([1]; 293.15 K): 1180.1 ± 1.1 kg/m3; mass density ([1]; 298.15 K): 1176.6 ± 1.1 kg/m3; mass density ([1]; 303.15 K): 1173.2 ± 1.1 kg/m3; viscosity ([1]; 308.15 K): 19620 ± 1600 mPa·s; refractive index ([2]; 298.15 K): 1.51473 ± 0.00037; refractive index ([2]; 303.15 K): 1.51362 ± 0.00037; refractive index ([2]; 313.15 K): 1.51149 ± 0.00037; refractive index ([2]; 318.15 K): 1.51024 ± 0.00037; refractive index ([2]; 323.15 K): 1.50891 ± 0.00037; refractive index ([2]; 328.15 K): 1.50757 ± 0.00037; refractive index ([2]; 333.15 K): 1.50604 ± 0.00037
2 | CCCCCCCCCCn1cc[n+](CCC#N)c1.[Br-] [3-(2-cyanoethyl)-1-decyl-1H-imidazolium bromide] | 1134.2 ± 1 kg/m3 | 16702 ± 1300 mPa·s | 1129.5 ± 1 kg/m3 | 10314 ± 740 mPa·s | 1125.6 ± 1 kg/m3 | 6813.4 ± 450 mPa·s | 1121.2 ± 1 kg/m3 | 4573.6 ± 280 mPa·s | 1118.2 ± 1 kg/m3 | 3016.4 ± 170 mPa·s | 1115 ± 1 kg/m3 | 2051.2 ± 100 mPa·s | 1111.7 ± 1 kg/m3 | 1426.6 ± 65 mPa·s | 1108.5 ± 1 kg/m3 | 1014.6 ± 42 mPa·s | 1105.2 ± 1 kg/m3 | 737 ± 27 mPa·s | 1101.9 ± 1 kg/m3 | 1.50786 ± 0.00037 | refractive index ([2]; 313.15 K): 1.50696 ± 0.00037; refractive index ([2]; 318.15 K): 1.50606 ± 0.00037; refractive index ([2]; 323.15 K): 1.50502 ± 0.00037; refractive index ([2]; 328.15 K): 1.50388 ± 0.00037; refractive index ([2]; 333.15 K): 1.50279 ± 0.00037
3 | CCCCn1cc[n+](CCC#N)c1.[Br-] [1-butyl-3-(2-cyanoethyl)-1H-imidazolium bromide] | 1297.7 ± 1.1 kg/m3 | 4502.1 ± 270 mPa·s | 1294.3 ± 1.1 kg/m3 | 2953 ± 160 mPa·s | 1291 ± 1.1 kg/m3 | 1989.7 ± 99 mPa·s | 1287.6 ± 1.1 kg/m3 | 1377.5 ± 62 mPa·s | 1284.4 ± 1.1 kg/m3 | 975.6 ± 39 mPa·s | 1281.2 ± 1.1 kg/m3 | 705.8 ± 25 mPa·s | 1277.9 ± 1.1 kg/m3 | 520.5 ± 17 mPa·s | 1274.7 ± 1.1 kg/m3 | 390.7 ± 11 mPa·s | 1271.4 ± 1.1 kg/m3 | 298.1 ± 7.4 mPa·s | 1268.2 ± 1.1 kg/m3 | 1.54346 ± 0.00037 | mass density ([1]; 293.15 K): 1308.5 ± 1.1 kg/m3; viscosity ([1]; 298.15 K): 19103 ± 1500 mPa·s; mass density ([1]; 298.15 K): 1304.7 ± 1.1 kg/m3; viscosity ([1]; 303.15 K): 11304 ± 830 mPa·s; mass density ([1]; 303.15 K): 1301.1 ± 1.1 kg/m3; viscosity ([1]; 308.15 K): 7058.4 ± 470 mPa·s; refractive index ([2]; 298.15 K): 1.5454 ± 0.00037; refractive index ([2]; 303.15 K): 1.54454 ± 0.00037; refractive index ([2]; 313.15 K): 1.54229 ± 0.00037; refractive index ([2]; 318.15 K): 1.54111 ± 0.00037; refractive index ([2]; 323.15 K): 1.53992 ± 0.00037; refractive index ([2]; 328.15 K): 1.53869 ± 0.00037; refractive index ([2]; 333.15 K): 1.53748 ± 0.00037
4 | CCCCCCn1cc[n+](CCC#N)c1.[Br-] [3-(2-cyanoethyl)-1-hexyl-1H-imidazolium bromide] | 1222.3 ± 1.1 kg/m3 | 5610.4 ± 360 mPa·s | 1219 ± 1.1 kg/m3 | 3602.1 ± 210 mPa·s | 1215.7 ± 1.1 kg/m3 | 2379.9 ± 120 mPa·s | 1212.4 ± 1.1 kg/m3 | 1618.2 ± 76 mPa·s | 1209.1 ± 1.1 kg/m3 | 1128.4 ± 48 mPa·s | 1205.8 ± 1.1 kg/m3 | 805.1 ± 30 mPa·s | 1202.5 ± 1.1 kg/m3 | 639.6 ± 22 mPa·s | 1199.2 ± 1.1 kg/m3 | 465.7 ± 14 mPa·s | 1195.9 ± 1.1 kg/m3 | 359.3 ± 9.7 mPa·s | 1192.7 ± 1.1 kg/m3 | 1.52719 ± 0.00037 | mass density ([1]; 293.15 K): 1232.4 ± 1.1 kg/m3; mass density ([1]; 298.15 K): 1229 ± 1.1 kg/m3; viscosity ([1]; 303.15 K): 15893 ± 1200 mPa·s; mass density ([1]; 303.15 K): 1225.6 ± 1.1 kg/m3; viscosity ([1]; 308.15 K): 9029.8 ± 630 mPa·s; refractive index ([2]; 298.15 K): 1.52872 ± 0.00037; refractive index ([2]; 303.15 K): 1.52823 ± 0.00037; refractive index ([2]; 313.15 K): 1.526 ± 0.00037; refractive index ([2]; 318.15 K): 1.52479 ± 0.00037; refractive index ([2]; 323.15 K): 1.52354 ± 0.00037; refractive index ([2]; 328.15 K): 1.52229 ± 0.00037; refractive index ([2]; 333.15 K): 1.52117 ± 0.00037

Source: the NIST ThermoML archive (doi:10.1021/je901050v)
